# Assays:
# Assay in all cases: relative viability (nuclei count vs DMSO), 5 days (fraction); higher = more cells survive
# NCI-H522 = test system: NCI-H522
# How it was run: (§1)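 A single step with final 0.05% Triton X-100, 1% formaldehyde and 1 ug/ml Hoechst fixed the cells and stained nuclei 5 days after treatment. Lung cancer cell lines in 1536-well plates had been treated by pin tool the day after seeding with one drug alone or a fixed anchor-drug dose plus five library-drug doses (not always all listed) in √10 steps, and nuclei were counted on 4× images. Relative viability is the ratio of nuclei in treated wells to nuclei in vehicle wells, taken as the median of duplicate plates.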
# LCLC-103H = test system: LCLC-103H
# How it was run: as §1
# NCI-H727 = test system: NCI-H727
# How it was run: as §1
# SK-MES-1 = test system: SK-MES-1
# How it was run: as §1
# NCI-H1355 = test system: NCI-H1355
# How it was run: as §1
# NCI-H1915 = test system: NCI-H1915
# How it was run: as §1
# NCI-H520 = test system: NCI-H520
# How it was run: as §1
# LXF-289 = test system: LXF-289
# How it was run: as §1
# PC-14 = test system: PC-14
# How it was run: as §1
# NCI-H322M = test system: NCI-H322M
# How it was run: as §1
# NCI-H460 = test system: NCI-H460
# How it was run: as §1
# NCI-H596 = test system: NCI-H596
# How it was run: as §1
# RERF-LC-KJ = test system: RERF-LC-KJ
# How it was run: as §1
# NCI-H1792 = test system: NCI-H1792
# How it was run: as §1
# NCI-H2347 = test system: NCI-H2347
# How it was run: as §1
# NCI-H1651 = test system: NCI-H1651
# How it was run: as §1
# NCI-H3122 = test system: NCI-H3122
# How it was run: as §1
# NCI-H661 = test system: NCI-H661
# How it was run: as §1
# NCI-H1755 = test system: NCI-H1755
# How it was run: as §1
# SW 900 = test system: SW 900
# How it was run: as §1
# NCI-H441 = test system: NCI-H441
# How it was run: as §1
structure (smiles),measurement,setting,value
CCN(CC)CCCCNc1ncc2cc(-c3cc(OC)cc(OC)c3)c(NC(=O)NC(C)(C)C)nc2n1 + CC(=O)Nc1cccc(-n2c(=O)n(C3CC3)c(=O)c3c(Nc4ccc(I)cc4F)n(C)c(=O)c(C)c32)c1 [Trametinib] (partner 0.02 µM),relative viability,NCI-H522; first compound 0.01 µM,0.799
same,relative viability,NCI-H522; first compound 0.03162 µM,0.772
same,relative viability,NCI-H522; first compound 0.1 µM,0.787
same,relative viability,NCI-H522; first compound 0.3162 µM,0.664
same,relative viability,NCI-H522; first compound 1 µM,0.883
same,relative viability,LCLC-103H; first compound 0.01 µM,0.691
same,relative viability,LCLC-103H; first compound 0.03162 µM,0.719
same,relative viability,LCLC-103H; first compound 0.1 µM,0.75
same,relative viability,LCLC-103H; first compound 0.3162 µM,0.68
same,relative viability,LCLC-103H; first compound 1 µM,0.579
same,relative viability,NCI-H727; first compound 0.01 µM,0.387
same,relative viability,NCI-H727; first compound 0.03162 µM,0.412
same,relative viability,NCI-H727; first compound 0.1 µM,0.369
same,relative viability,NCI-H727; first compound 0.3162 µM,0.362
same,relative viability,NCI-H727; first compound 1 µM,0.362
same,relative viability,SK-MES-1; first compound 0.01 µM,0.601
same,relative viability,SK-MES-1; first compound 0.03162 µM,0.562
same,relative viability,SK-MES-1; first compound 0.1 µM,0.525
same,relative viability,SK-MES-1; first compound 0.3162 µM,0.584
same,relative viability,SK-MES-1; first compound 1 µM,0.512
same,relative viability,NCI-H1355; first compound 0.01 µM,0.462
same,relative viability,NCI-H1355; first compound 0.03162 µM,0.436
same,relative viability,NCI-H1355; first compound 0.1 µM,0.479
same,relative viability,NCI-H1355; first compound 0.3162 µM,0.502
same,relative viability,NCI-H1355; first compound 1 µM,0.382
same,relative viability,NCI-H1915; first compound 0.01 µM,0.303
same,relative viability,NCI-H1915; first compound 0.03162 µM,0.294
same,relative viability,NCI-H1915; first compound 0.1 µM,0.33
same,relative viability,NCI-H1915; first compound 0.3162 µM,0.249
same,relative viability,NCI-H1915; first compound 1 µM,0.233
same,relative viability,NCI-H520; first compound 0.01 µM,0.684
same,relative viability,NCI-H520; first compound 0.03162 µM,0.538
same,relative viability,NCI-H520; first compound 0.1 µM,0.722
same,relative viability,NCI-H520; first compound 0.3162 µM,0.287
same,relative viability,NCI-H520; first compound 1 µM,0.216
same,relative viability,LXF-289; first compound 0.01 µM,0.704
same,relative viability,LXF-289; first compound 0.03162 µM,0.703
same,relative viability,LXF-289; first compound 0.1 µM,0.637
same,relative viability,LXF-289; first compound 0.3162 µM,0.759
same,relative viability,LXF-289; first compound 1 µM,0.644
same,relative viability,PC-14; first compound 0.01 µM,0.956
same,relative viability,PC-14; first compound 0.03162 µM,0.836
same,relative viability,PC-14; first compound 0.1 µM,1.16
same,relative viability,PC-14; first compound 0.3162 µM,0.759
same,relative viability,PC-14; first compound 1 µM,0.591
same,relative viability,NCI-H322M; first compound 0.01 µM,0.514
same,relative viability,NCI-H322M; first compound 0.03162 µM,0.49
same,relative viability,NCI-H322M; first compound 0.1 µM,0.436
same,relative viability,NCI-H322M; first compound 0.3162 µM,0.339
same,relative viability,NCI-H322M; first compound 1 µM,0.488
same,relative viability,NCI-H460; first compound 0.01 µM,0.127
same,relative viability,NCI-H460; first compound 0.03162 µM,0.208
same,relative viability,NCI-H460; first compound 0.1 µM,0.153
same,relative viability,NCI-H460; first compound 0.3162 µM,0.124
same,relative viability,NCI-H460; first compound 1 µM,0.062
same,relative viability,NCI-H596; first compound 0.01 µM,0.865
same,relative viability,NCI-H596; first compound 0.03162 µM,0.879
same,relative viability,NCI-H596; first compound 0.1 µM,0.677
same,relative viability,NCI-H596; first compound 0.3162 µM,0.778
same,relative viability,NCI-H596; first compound 1 µM,0.646
same,relative viability,RERF-LC-KJ; first compound 0.01 µM,0.925
same,relative viability,RERF-LC-KJ; first compound 0.03162 µM,0.923
same,relative viability,RERF-LC-KJ; first compound 0.1 µM,0.94
same,relative viability,RERF-LC-KJ; first compound 0.3162 µM,0.906
same,relative viability,RERF-LC-KJ; first compound 1 µM,0.818
same,relative viability,NCI-H1792; first compound 0.01 µM,0.432
same,relative viability,NCI-H1792; first compound 0.03162 µM,0.42
same,relative viability,NCI-H1792; first compound 0.1 µM,0.415
same,relative viability,NCI-H1792; first compound 0.3162 µM,0.518
same,relative viability,NCI-H1792; first compound 1 µM,0.232
same,relative viability,NCI-H2347; first compound 0.01 µM,0.253
same,relative viability,NCI-H2347; first compound 0.03162 µM,0.261
same,relative viability,NCI-H2347; first compound 0.1 µM,0.293
same,relative viability,NCI-H2347; first compound 0.3162 µM,0.367
same,relative viability,NCI-H2347; first compound 1 µM,0.321
same,relative viability,NCI-H1651; first compound 0.01 µM,0.863
same,relative viability,NCI-H1651; first compound 0.03162 µM,0.802
same,relative viability,NCI-H1651; first compound 0.1 µM,0.842
same,relative viability,NCI-H1651; first compound 0.3162 µM,0.836
same,relative viability,NCI-H1651; first compound 1 µM,0.806
same,relative viability,NCI-H3122; first compound 0.01 µM,0.246
same,relative viability,NCI-H3122; first compound 0.03162 µM,0.229
same,relative viability,NCI-H3122; first compound 0.1 µM,0.226
same,relative viability,NCI-H3122; first compound 0.3162 µM,0.239
same,relative viability,NCI-H3122; first compound 1 µM,0.247
same,relative viability,NCI-H661; first compound 0.01 µM,0.592
same,relative viability,NCI-H661; first compound 0.03162 µM,0.589
same,relative viability,NCI-H661; first compound 0.1 µM,0.569
same,relative viability,NCI-H661; first compound 0.3162 µM,0.563
same,relative viability,NCI-H661; first compound 1 µM,0.473
same,relative viability,NCI-H1755; first compound 0.01 µM,0.83
same,relative viability,NCI-H1755; first compound 0.03162 µM,0.776
same,relative viability,NCI-H1755; first compound 0.1 µM,0.759
same,relative viability,NCI-H1755; first compound 0.3162 µM,0.827
same,relative viability,NCI-H1755; first compound 1 µM,0.55
same,relative viability,SW 900; first compound 0.01 µM,0.787
same,relative viability,SW 900; first compound 0.03162 µM,0.916
same,relative viability,SW 900; first compound 0.1 µM,0.947
same,relative viability,SW 900; first compound 0.3162 µM,0.665
same,relative viability,SW 900; first compound 1 µM,0.522
same,relative viability,NCI-H441; first compound 0.01 µM,0.545
same,relative viability,NCI-H441; first compound 0.03162 µM,0.506
same,relative viability,NCI-H441; first compound 0.1 µM,0.489
same,relative viability,NCI-H441; first compound 0.3162 µM,0.529
same,relative viability,NCI-H441; first compound 1 µM,0.408
